Results as given in ChEMBL document CHEMBL1150663, “Pachastrissamine, a cytotoxic anhydrophytosphingosine from a marine sponge, Pachastrissa sp” (J Nat Prod, 2002).

Tests used:
Format in all cases: functional, cell-based
P388 = assay: Cytotoxicity against mouse P388 cells after 3 days; conditions: P388, 72 h
A549 = assay: Cytotoxicity against human A549 cells after 3 days; conditions: A549, 72 h
HT-29 = assay: Cytotoxicity against human HT-29 cells after 3 days; conditions: HT-29, 72 h
SK-MEL-28 = assay: Cytotoxicity against human SK-MEL-28 cells after 3 days; conditions: SK-MEL-28, 72 h

Measured: IC50

CCCCCCCCCCCCCC[C@@H]1OC[C@H](N)[C@@H]1O [PACHASTRISSAMINE]
0.01 µg/mL: all assays above
